Reference: patent US10174081B2, “Antimicrobial peptides and uses therefore” (priority 2011, dated 2019)
≈ marks a conversion by molar mass, not a printed value. Where “and” joins values, the source holds several entries; their conditions need not be identical. Equal values may be shown once. Square brackets hold non-standard residues; d marks the D form. Ends that are not written are not given here. Peptide text beside a SMILES is read from it.

Tests used:
B. cereus (ATCC 11778) = test: Anti-microbial performance against B. cereus, with and without FICOLL 70; format: cell-based; settings: for fold increase in potency against B. cereus: 20% FICOLL 70 versus none
C. albicans (ATCC 14053) = test: Anti-microbial assay (CFU survival, EC50) against C. albicans; format: cell-based, Candida albicans; settings: for EC50 against C. albicans: 3 hours, 37° C., 10 mM sodium phosphate pH 7.4, inconsistent colony growth; for Inhibition of C. albicans: at 500 and 100 μg; for EC50: converted with molecular weight
Procedure: C. albicans (ATCC 14053) was grown up in 25 mL of Sabouraud Dextrose (SO) broth for 48 hours at 25° C., after which samples were aliquoted into 2 mL microcentrifuge tubes at 0.5 mL.
On a 96-well plate, 1×10^4 CFU per well of C. albicans were incubated with different peptide concentrations (in serial dilutions of 1:10 and 1:5) starting with […] in a solution of buffer containing 10 mM sodium phosphate at pH 7.4 (3 hours, 37° C.). Serial dilutions were then carried out in 1× Dulbecco's PBS, and samples were plated in triplicate on Sabouraud Dextrose Agar plates, incubated (25° C., 48 hours) and CFUs were counted. C. albicans survival at each peptide concentration was calculated as previously described (Amer et al., supra; de Latour et al., supra), based on the percentage of the number of colonies in each experimental plate relative to the average number of colonies observed for assay cultures lacking peptide. […] In the equation, “Top” and “Bottom” refer to the upper and lower boundaries, and were constrained to values <100% and >0%, respectively. For graphing purposes, samples that had no peptide were plotted at 10^−9 μg/ml peptide. EC50 values were determined by fitting the data from the anti-microbial assays to a standard sigmoidal dose-response curve. Errors were reported based on the standard deviation from the mean of the log EC50 values. 2. Results

[1] = tested on: P. aeruginosa (ATCC 19429); test: Anti-microbial assay (CFU survival, EC50) against P. aeruginosa; format: cell-based, Pseudomonas aeruginosa; settings: Example 6, FIG. 16; unit not given
Procedure: P. aeruginosa (ATCC 19429, American Type Culture Collection, Manassas, Va.) was grown in Nutrient Broth (Difco Laboratories, Detroit, Mich.) at 37° C. for 24 hours with shaking at 200 rpm. The CFU/ml was determined by growth on Nutrient Agar plates. For anti-microbial assays, frozen enumerated aliquots were thawed immediately before use.
Each experiment was repeated at least twice, and a representative experiment is shown, for clarity.

E. coli (ATCC 25922) = test: Anti-microbial performance against E. coli, with and without FICOLL 70; format: cell-based, Escherichia coli; settings: for Average EC50, E. coli: unit inferred; for fold increase in potency against E. coli: 20% FICOLL 70 versus none; for Anti-microbial performance of ATRA-1A isomers (EC50) E coli (ATCC 25922): Example 5, Table 9
Procedure: In these assays, bacteria (1×10^5 CFU/ml) were incubated for 3 hours at 37° C. with varied concentrations of peptide in 10 mM phosphate buffer (pH 7.4) containing 0 to 30% FICOLL™ 70. The potencies of the peptide isomers were determined by plotting bacterial survival (%) as a function of log peptide concentration and fitting the data to a standard dose response equation. Each experiment was conducted at least three times, with the exception of experiments with 15% and 30% FICOLL™, which were only performed once.

A. baumannii = settings: Example 5, Table 9
Procedure: Anti-microbial activity was determined for each peptide isomer by enumerating the number of viable colony forming units after incubating bacteria in media containing varied concentrations of peptide.

P. aeruginosa biofilm [2] = test: Biofilm production (crystal violet) and growth (OD600) of P. aeruginosa in TSB; format: cell-based, Pseudomonas aeruginosa
Procedure: Biofilm production was measured as previously described (Durham-Colleran et al. (2010) Microb. Ecol., 59(3):457-465) with the following modifications. P. aeruginosa (1×10^5 CFU) in 200 μl of TSB media (Trypticase Soy Broth) was incubated with peptide at concentrations of 1.0, 0.1, and 0.01 μg/ml for 24 hours at 37° C. (Table 2). Optical density of the cultures (OD600 nm) at 24 hours was determined prior to staining as a measure of bacterial growth. Six wells were used for each peptide concentration (n=6). Biofilm production was measured using the crystal violet stain technique (Durham-Colleran et al., supra).

S. aureus biofilm = test: Biofilm production (crystal violet) and growth (OD600) of S. aureus in TSB; format: cell-based, Staphylococcus aureus
Procedure: Biofilm production was measured as previously described (Durham-Colleran et al., supra) with the following modifications. […] The positive control was S. aureus in TSB with no peptide. Six wells were used for each peptide concentration (n=6). After 24 hours, the optical densities (OD) of the wells were taken at 600 nm to quantify […]. The biofilm production was measured using the crystal violet stain technique (Durham-Colleran et al., supra). All experiments were repeated at least twice.

S. aureus (ATCC 25923) = test: Anti-microbial assay (CFU survival, EC50) against S. aureus; format: cell-based, Staphylococcus aureus; settings: for EC50 against S. aureus, preliminary studies: Example 4, FIG. 10
Procedure: S. aureus (ATCC 25923, American Type Culture Collection, Manassas, Va.) was grown in Nutrient Broth (Difco Laboratories, Detroit, Mich.) at pH 7, 37° C., for 24 hours with shaking at 200 rpm. The overnight culture was frozen with 20% glycerol and stored at −80° C. The frozen stock was enumerated (CFU/ml) by dilution plating and growth on Nutrient Agar plates.
For anti-microbial assays, frozen enumerated aliquots were thawed and gently mixed immediately before use. […] Negative control wells contained bacteria with no peptide. […] The EC50 was calculated as previously described (de Latour et al., supra).
Errors were reported based on the standard deviation from the mean of the log10 EC50 values (Gordon et al., supra). 95% confidence intervals were used to determine whether points were statistically different at p=0.05.

P. aeruginosa = test: Galleria mellonella infection by P. aeruginosa with AMP and antibiotic treatments; format: in vivo; settings: single dose: 5 μg ciprofloxacin or 10 μg peptide
Procedure: Galleria mellonella (wax moth caterpillars) were obtained from Vanderhorst Wholesale (Saint Marys, Ohio). Eight to twelve caterpillars of equal size/weight were randomly assigned to each group. A 1 mL tuberculin syringe was used to inject 10 μl of 1×10^3 CFU/ml of P. aeruginosa into each caterpillar via the last left proleg. […] Caterpillar control groups included: injected with only PBS, ciprofloxacin, or AMPs. The insects were then observed daily for their survival status.

S. aureus = test: Biofilm attachment assay; format: cell-based, Staphylococcus aureus; settings: 1 μg/ml peptide, 1 hour, 37° C.
Procedure: Biofilm attachment assays were performed in 96-well microtiter plates (BD Falcon 353072) as previously described (Overhage et al., supra). Overnight cultures of S. aureus were grown in TSB to an OD600 of about 1.0. […] The plates were incubated (1 hour, 37° C.) to allow the S. aureus to adhere to the wells. The wells were washed and OD600 measurements were taken, as in the biofilm production experiments, and the average absorbance for each treatment was determined (n=16).

P. aeruginosa biofilm [3] = settings: Overhage et al.; cited from earlier work

Molecule	fold increase in potency against B. cereus (B. cereus (ATCC 11778)) [fold]	EC50 with 20% FICOLL 70, B. cereus (B. cereus (ATCC 11778)) [µg/mL]	EC50 without FICOLL 70, B. cereus (B. cereus (ATCC 11778)) [µg/mL]	EC50 against C. albicans (C. albicans (ATCC 14053)) [µg/mL]	Inhibition of C. albicans (C. albicans (ATCC 14053))	EC50 (C. albicans (ATCC 14053)) [µM]	average EC50 against P. aeruginosa [1]	Average EC50, E. coli (E. coli (ATCC 25922); 0% FICOLL 70) [µg/mL]	Average EC50, E. coli (E. coli (ATCC 25922); 5% FICOLL 70) [µg/mL]	Average EC50, E. coli (E. coli (ATCC 25922); 10% FICOLL 70) [µg/mL]	Average EC50, E. coli (E. coli (ATCC 25922); 15% FICOLL 70, performed once) [µg/mL]	Average EC50, E. coli (E. coli (ATCC 25922); 20% FICOLL 70) [µg/mL]	fold increase in potency against E. coli (E. coli (ATCC 25922)) [fold]	Average EC50, E. coli (E. coli (ATCC 25922); 30% FICOLL 70, performed once) [µg/mL]	Anti-microbial performance of ATRA-1A isomers (EC50) E coli (ATCC 25922) (E. coli (ATCC 25922)) [µg/mL]	EC50 with 20% FICOLL 70, E. coli (E. coli (ATCC 25922)) [µg/mL]	EC50 without FICOLL 70, E. coli (E. coli (ATCC 25922)) [µg/mL]	Anti-microbial performance of ATRA-1A isomers (EC50) A. baumannii (A. baumannii) [µg/mL]	EC50 against S. aureus, preliminary studies (S. aureus (ATCC 25923)) [µg/mL]	other results
CC(C)C[C@@H](NC(=O)[C@@H](CCCCN)NC(=O)[C@@H](CCCCN)NC(=O)[C@@H](Cc1ccccc1)NC(=O)[C@@H](Cc1ccccc1)NC(=O)[C@@H](CCCCN)NC(=O)[C@@H](CCCCN)NC(=O)[C@@H](C)NC(=O)[C@@H](CCCNC(=N)N)NC(=O)[C@H](N)CCCCN)C(=O)N[C@H](CCCCN)C(N)=O [D-ATRA-1A] (H-[dK][dR][dA][dK][dK][dF][dF][dK][dK][dL][dK]-NH2; N-terminus assumed)	54.34	0.0406	2.330	22.10 (≈ 15.6 µM)	consistently seen	15.6	9.643 (CI 6.5 to 14.2)	1.3	0.71	0.24	0.1	0.085	13.66	0.01	1.302	0.0850	1.302	9.73	6.97 (≈ 4.91 µM)	inhibiting biofilm growth, D- versus L-ATRA-1A (P. aeruginosa biofilm [2]; 1 μg/ml, FIG. 20): more effective at inhibiting biofilm growth; inhibiting biofilm growth, D- versus L-ATRA-1A (S. aureus biofilm; 1 μg/ml, FIG. 20): more effective at inhibiting biofilm growth; fold difference in activities of L- and D-ATRA-1A against S. aureus (S. aureus (ATCC 25923); D less effective than L): 30 fold; EC50 against S. aureus, two best data sets (S. aureus (ATCC 25923); Example 6, FIGS. 14 and 15, left and right panels): 26.53 µg/mL and 25.02 µg/mL
O=C(O)c1cn(C2CC2)c2cc(N3CCNCC3)c(F)cc2c1=O [ciprofloxacin]																				effect on survival of infected G. mellonella (P. aeruginosa): effective; survival of P. aeruginosa-infected G. mellonella (P. aeruginosa; 1×10^3 CFU): 55%
GLKLRFEFSKIKGEFLKTPEVRFRDIKLKDNRISVQR [Scrambled LL-37, reference compound]																				attachment of S. aureus to polystyrene wells (S. aureus): did not decrease; inhibition of biofilm formation (P. aeruginosa biofilm [2]; TSB, any concentration tested (up to 1 μg/ml)): no inhibition of biofilm formation; inhibition of biofilm formation (S. aureus biofilm; TSB, concentrations without anti-microbial activity): no inhibition of biofilm formation
GLLRKGGEKIGEKLKKIGQKIKNFFQKLVPQPEQ [mCRAMP]																				inhibitory effect on biofilm formation, previously known (P. aeruginosa biofilm [3]): no inhibitory effect
KRAKKFFKKLK-NH2 [ATRA-1A]	14	5.207	72.41	33.38	consistently seen	23.5	14.22 (CI 10.4 to 19.4)	2.9	1.6	0.86	0.64	0.42	10.66	0.29	4.323	0.420	4.232	53.25	0.27	EC50 of AMPs against S. aureus (S. aureus (ATCC 25923); 3 hours, 37° C., 10 mM sodium phosphate pH 7.4, ± standard deviation): 1.45 ± 1.5 µg/mL; Anti-microbial performance of ATRA-1A isomers (EC50) S. aureus (S. aureus (ATCC 25923); Example 5, Table 9): 1.45 µg/mL; EC50 (S. aureus (ATCC 25923); converted from μg/ml with molecular weight of TFA salt): 0.62 µM
